Data on 30 compounds can be found in ChEMBL document CHEMBL5608113, “Targeting of CAF-induced therapy resistance in CRC organoid-stroma co-cultures” (2024).

Common to all, as to assay type: functional, Homo sapiens
Holding throughout (settings): Homo sapiens, read-out: Cell Viability; for viability at 10 µM: Concentration 10 uM; for viability at 1 µM: Concentration 1 uM

For test [1], the system named is Colon cancer organoid. Description: Targeting of F14 CAF-induced therapy resistance in O23 CRC organoid-stroma co-culture. Cell viability is reported without Gefitinib.
Test [2] deals with Colon cancer organoid. Briefly: Targeting of F14 CAF-induced therapy resistance in O23 CRC organoid-stroma co-culture. Cell viability is reported with SN-38.
Test [3] deals with Colon cancer organoid. Briefly: Targeting of F14 CAF-induced therapy resistance in O14 CRC organoid-stroma co-culture. Cell viability is reported without Gefitinib.
Test [4] concerns Colon cancer organoid. Description: Targeting of F14 CAF-induced therapy resistance in O14 CRC organoid-stroma co-culture. Cell viability is reported with Gefitinib.
Test [5] relates to Colon cancer organoid. Briefly: Targeting of F14 CAF-induced therapy resistance in O23 CRC organoid-stroma co-culture. Cell viability is reported with Gefitinib.

Square brackets hold non-standard residues; d marks the D form. Peptide text beside a SMILES is read from it. Arg(Me) = CNC(=N)NCCC[C@H](N)C(=O)O; d3Pal = N[C@H](Cc1cccnc1)C(=O)O; azaGly = NNC(=O)O

`Cn1c(-c2csc(C3CCN(CC4=NC5N=CC=CC5N4)CC3)n2)nc2ccccc21` (stereo not given) [BAY-070]: the viability (usually a read-out of living cells in per cent, often relative to untreated cells) at 10 µM in test [1] came to 136%; in test [2] it was 105%; in test [3] it was 90.7%; in test [4], 44.6%; in test [5], 73.4%.

Turning to `O=C(O)c1ccc(-c2c[nH]c3ncc(-c4ccccc4)cc23)cc1C1CCCC1` [GSK-650394], the viability at 10 µM in test [1] is 136%; in test [2], 82.6%; in test [3], 104%; in test [4], 65%; in test [5], 93.5%.

On to `CO[C@@H](C)c1c(Nc2ccc([C@@H](N(C)C(=O)C3CCS(=O)(=O)CC3)C(F)(F)F)cc2)cnc2cc(Cl)nn12` [NVS-MALT1-C], for which the viability at 10 µM in test [1] was 119%; in test [2], 82.8%; in test [3] it was 84.5%; in test [4] it was 34.3%; in test [5] it was 70.3%.

Turning to `CO[C@@H](C)c1c(Nc2ccc([C@H](N(C)C(=O)C3CCS(=O)(=O)CC3)C(F)(F)F)cc2)cnc2cc(Cl)nn12` [NVS-MALT1], the viability at 10 µM in test [1] is 226%; in test [2], 89.1%; in test [3] it was 106%; in test [4], 36.8%; in test [5], 60.9%.

Regarding `CNC(=O)Nc1ccc2c(c1)[C@@]1(CC2)OC(=O)N(CC(=O)N(Cc2ccc(F)cc2)[C@@H](C)C(F)(F)F)C1=O` [A-486], the viability at 1 µM in test [1] was found to be 92.2%; in test [2] it was 69.7%; in test [3], 90.8%; in test [4], 50%; in test [5], 47.9%.

As to `CC(C)NC(=O)N1CC[C@H](NC2=Nc3cc(F)ccc3N(CC(F)F)c3ccc(Cl)cc32)C1`, the viability at 10 µM is 79% in test [1]; 42.9% in test [2]; 89.7% in test [3]; 36% in test [4]; 61.4% in test [5].

On to `O=C(NC[C@H](O)CN1CCc2ccccc2C1)c1ccnc(NC2CCC2)c1`, for which the viability at 10 µM came out at 83.1% in test [1]; 50.6% in test [2]; 32.6% in test [3]; 31.9% in test [4]; 43.2% in test [5].

Take `O=C(NCc1ncc(C(F)(F)F)cc1Cl)c1ccc2c(c1)C1(CCS(=O)(=O)CC1)[C@@H](C1CC1)N2S(=O)(=O)c1ccc(F)cc1` [BAY-786]: the viability at 10 µM in test [1] worked out at 138%; in test [2], 106%; in test [3], 115%; in test [4], 53%; in test [5] it was 61.5%.

In the case of `O=C(NNS(=O)(=O)c1ccccc1F)c1cc(F)cc(-c2ccccn2)c1` [WM-1119], the viability at 10 µM worked out at 121% in test [1]; 57.2% in test [2]; 41% in test [3]; 19.4% in test [4]; 40.5% in test [5].

Take `O=C(CCCCCCNC(=O)c1cnc(N(c2ccccc2)c2ccccc2)nc1)NO` [RICOLINOSTAT]: the viability at 10 µM in test [1] was determined as 108%; in test [2], 43.7%; in test [3], 141%; in test [4], 83%; in test [5], 81.3%.

Turning to `O=C(N[C@H]1CCCCC/C=C\C2C[C@@]2(C(=O)O)NC(=O)[C@@H]2C[C@@H](Oc3ccncc3)CN2C1=O)OC1CCCC1` (stereo not given in full) [BI 1675], the viability at 10 µM came out at 136% in test [1]; 89.7% in test [2]; 102% in test [3]; 62% in test [4]; 51% in test [5].

In the case of `CCc1cc2cc(NS(=O)(=O)c3ccc(C#N)cc3)ccc2n(CC)c1=O`, the viability at 10 µM in test [1] was 127%; in test [2], 88.2%; in test [3] it was 106%; in test [4], 84%; in test [5], 73.6%.

Turning to `CNc1nc(-c2ccc3c(N)n[nH]c3c2)cc(N2C[C@@H](C(=O)NC3CCCCC3)CC[C@H]2C)n1`, the viability at 10 µM in test [1] came to 44.8%; in test [2], 39.8%; in test [3] it was 57.6%; in test [4] it was 17.9%; in test [5], 24.3%.

In the case of `CC1CCN(c2ccnc(NCc3cn(C)cn3)n2)CC1` [TP-040], the viability at 10 µM in test [1] was 107%; in test [2], 62.9%; in test [3], 128%; in test [4] it was 55%; in test [5], 81.4%.

As to `CNC(=N)NCCC[C@H](NC(=O)[C@H](CC(C)C)NC(=O)NNC(=O)[C@H](Cc1ccccc1)NC(=O)[C@H](CO)NC(=O)[C@H](CC(N)=O)NC(=O)[C@@H](Cc1cccnc1)NC(=O)[C@H](N)Cc1ccc(O)cc1)C(=O)NCC(N)=O` [KISS1-543] (H-[dY][d3Pal]NSF[azaGly]L[Arg(Me)]G-NH2), the viability at 10 µM stood at 93.8% in test [1]; 71.6% in test [2]; 103% in test [3]; 62.9% in test [4]; 49.7% in test [5].

On to `O=C(NCCN1CCOCC1)c1ccc2c(c1)C(=O)c1ccc(Nc3ccc(F)c(NC(=O)c4ccccc4)c3)cc1CC2` [FS-694], for which the viability at 10 µM stood at 108% in test [1]; 54% in test [2]; 156% in test [3]; 28.9% in test [4]; 40% in test [5].

As to `O=C1CCc2cc(Nc3cc(OC4CCOCC4)c([N+](=O)[O-])cc3Cl)ccc2N1`, the viability at 10 µM in test [1] amounted to 117%; in test [2], 60.5%; in test [3], 112%; in test [4], 75.9%; in test [5], 57.9%.

Take `Cc1cc2c(cc1N1C(=O)c3cccc4c(CCCO)ccc(c34)C1=O)n(C)c(=O)n2C`: the viability at 10 µM in test [1] came to 150%; in test [2] it was 81.8%; in test [3], 47.7%; in test [4], 43.3%; in test [5], 71.7%.

Consider `COc1cc(Nc2nccc(-c3cnn4nc(OC)ccc34)n2)cc(C(F)(F)F)c1`, for which the viability at 10 µM in test [1] was 53.3%; in test [2], 23.6%; in test [3], 3.97%; in test [4], 3.12%; in test [5] it was 19.5%.

Consider `CNCCN1CCC(c2cc(CN(C)C(=O)c3cccc(Oc4ccccc4)c3)ccn2)CC1`, for which the viability at 10 µM in test [1] stood at 118%; in test [2] it was 84.5%; in test [3], 80.6%; in test [4], 40.3%; in test [5] it was 71.9%.

With `COCc1nc2cnc3cc(-c4c(C)noc4C)c(OC[C@H]4CCNC4)cc3c2n1[C@H](C)c1ccccc1` [GSK778], the viability at 10 µM in test [1] was 95.6%; in test [2], 48.8%; in test [3], 40%; in test [4], 8.04%; in test [5], 47.2%.

Consider `CN1C(=O)[C@@H](N2CCc3c(nn(Cc4ccccc4)c3Br)C2=O)COc2ccccc21` [TP-030-2], for which the viability at 1 µM in test [1] was found to be 165%; in test [2], 63.7%; in test [3], 113%; in test [4] it was 31.6%; in test [5], 83.4%.

Turning to `COc1cc(C#N)ccc1S(=O)(=O)Nc1ccc2c(c1)cc(C)c(=O)n2C`, the viability at 10 µM worked out at 149% in test [1]; 127% in test [2]; 101% in test [3]; 66.9% in test [4]; 86% in test [5].

As for `C[C@@H](c1cccc(C#N)c1)n1cc(Cl)cc(C(N)=O)c1=N`, the viability at 10 µM in test [1] came out at 126%; in test [2] it was 62.2%; in test [3], 76.7%; in test [4], 34.3%; in test [5], 49.6%.

As to `COc1ccc2c(O[C@@H]3C[C@H]4C(=O)N[C@]5(C(=O)O)CC5/C=C\CCCCC[C@H](NC(=O)OC5CCCC5)C(=O)N4C3)cc(-c3csc(NC(=O)C(C)C)n3)nc2c1C` (stereo not given in full) [BI 1230], the viability at 10 µM turned out to be 141% in test [1]; 77.1% in test [2]; 152% in test [3]; 50% in test [4]; 63.1% in test [5].

As to `O=C1NC(c2ccccn2)Sc2ccccc21` (stereo not given) [BTZO-4], the viability at 10 µM in test [1] is 142%; in test [2] it was 100%; in test [3], 112%; in test [4], 48.9%; in test [5] it was 56.6%.

As for `O[C@]1(C(F)(F)F)CCCC[C@H]1Nc1ccc(F)cc1` [BAY-390], the viability at 1 µM turned out to be 153% in test [1]; 51% in test [2]; 92.1% in test [3]; 34% in test [4]; 64.2% in test [5].

As for `Cc1cn(-c2cc(NC(=O)c3ccc4c(c3)CN(c3cncnc3)C[C@@H]4C)cc(C(F)(F)F)c2)cn1`, the viability at 10 µM in test [1] was found to be 115%; in test [2], 57.5%; in test [3], 149%; in test [4] it was 50.6%; in test [5], 63.8%.

Consider `O=C(NCc1ccccc1)c1ccc(S(=O)(=O)NCc2ccccc2)cc1`, for which the viability at 10 µM in test [1] came to 97%; in test [2], 82.9%; in test [3] it was 103%; in test [4], 40.5%; in test [5] it was 58.1%.

Turning to `CCOC(=O)Nc1cc(-c2ccc(C)c(NS(C)(=O)=O)c2)nn2c(C)nnc12`, the viability at 10 µM in test [1] was 146%; in test [2], 79.5%; in test [3] it was 59.2%; in test [4] it was 14%; in test [5] it was 63.4%.
